Reference: ChEMBL document CHEMBL1124708, “Glycolipids as host resistance stimulators” (1990)
“And” between values parts separate entries of the source, which are not always exact repeats. Equal entries are not always repeated.

Assays:
[1] = species on record: Mus musculus; assay: (§1) Log value of the protective index was calculated; type: functional, organism-based
[2] = as §1
[3] = test system: Mus musculus; assay: No of CFU was determined that cause 50% lethality against Pseudomonas aeruginosa after 40 mg/kg ip administration; type: functional; conditions: route intraperitoneal
[4] = test system: Mus musculus; assay: Protective index of Pseudomonas aeruginosa after 40 mg/kg ip administration pretreated 250 mg/kg cytoxan ip on day -4.; type: functional
[5] = test system: Pseudomonas aeruginosa; assay: (§2) No of CFU was determined that cause 50% lethality against Pseudomonas aeruginosa after 40 mg/kg sc administration; type: functional; conditions: route subcutaneous
[6] = test system: Mus musculus; assay: Protective index of Pseudomonas aeruginosa after 40 mg/kg sc administration pretreated 250 mg/kg cytoxan ip on day -4.; type: functional
[7] = test system: Pseudomonas aeruginosa; assay: Protective index against Pseudomonas aeruginosa after 40 mg/kg subcutaneous administration pretreated 250 mg/kg cytoxan intraperitoneal on day -4.; type: functional
[8] = as §1; type: functional
[9] = test system: Mus musculus; assay: as §2; type: functional; conditions: route subcutaneous
[10] = test system: Mus musculus; assay: Protective index Pseudomonas aeruginosa after 40 mg/kg sc administration pretreated 250 mg/kg cytoxan ip on day -4.; type: functional
[11] = test system: Mus musculus; assay: Protective index of Pseudomonas aeruginosa after 40 mg/kg im administration pretreated 250 mg/kg cytoxan ip on day -1; type: functional
[12] = test system: Mus musculus; assay: Protective index of Pseudomonas aeruginosa after 40 mg/kg im administration pretreated 250 mg/kg cytoxan ip on day -2; type: functional
[13] = test system: Mus musculus; assay: protective index of Pseudomonas aeruginosa after 40 mg/kg im administration pretreated 250 mg/kg cytoxan ip on day -1; type: functional
[14] = test system: Mus musculus; assay: Protective index of Pseudomonas aeruginosa after 40 mg/kg sc administration pretreated 250 mg/kg cytoxan ip on day -7; type: functional
[15] = test system: Mus musculus; assay: Protective index of Pseudomonas aeruginosa after 4 mg/kg sc administration pretreated 250 mg/kg cytoxan ip; type: functional

**Q.** With CC(C)CCCC(C)[C@H]1CC[C@H]2C3CC=C4C[C@@H](OCCCCCCS[C@@H]5O[C@@H](CO)[C@@H](O)[C@H](O)[C@@H]5O)CC[C@]4(C)[C@H]3CC[C@]12C (stereo in doubt; form 2) as the molecule, how does the Log PI [1] read?
**A.** 0

**Q.** And the Log PI [2]?
**A.** 0

**Q.** With CC(C)CCCC(C)[C@H]1CC[C@H]2C3CC=C4C[C@@H](OCCCCCCS[C@@H]5O[C@@H](CO)[C@@H](O)[C@H](O)[C@@H]5O)CC[C@]4(C)[C@H]3CC[C@]12C (stereo in doubt; form 1) [listing 1 of 2 here] as the molecule, how does the “No. of Colony forming Units” value [3] read?
**A.** 76

**Q.** And the PI [4]?
**A.** 4.75

**Q.** What about the “No. of Colony forming Units” value ([5]; 40 mg/kg) of the same molecule?
**A.** 56.7 and 47 and 101

**Q.** What about the PI [6] of the same molecule?
**A.** 2.94

**Q.** And the PI [7]?
**A.** 0.53 and 0.94

**Q.** Which “No. of Colony forming Units” value ([5]; 40 mg/kg) does the source give for CC(=O)NC1C(SCCCCCCOC2CCC3(C)C(=CCC4C3CCC3(C)C(C(C)CCCC(C)C)CCC43)C2)OC(CO)C(O)C1O (stereo in doubt; form 2) [listing 1 of 2 here] here?
**A.** 56.7 and 75

**Q.** With CC(C)CCCC(C)[C@H]1CC[C@H]2C3CC=C4C[C@@H](OCCCCCCS[C@@H]5O[C@@H](CO)[C@@H](O)[C@H](O)[C@@H]5O)CC[C@]4(C)[C@H]3CC[C@]12C (stereo in doubt; form 1) [listing 2 of 2 here] as the molecule, how does the Log PI [8] read?
**A.** 0

**Q.** Which PI [9] does the source give for CC(=O)N[C@@H]1C(O)O[C@@H](CO)[C@@H](O)[C@@H]1O[C@@H](C)C(=O)N[C@@H](C)C(=O)N[C@@H](CCC(=O)O)C(N)=O (some centres not stated) here?
**A.** 1.31

**Q.** And the Log PI [8]?
**A.** 0.27

**Q.** And the PI [10]?
**A.** 1.87 and 1.31

**Q.** Which PI [7] does the source give for CC(C)CCOC(=O)C1CCC2C3CC=C4CC(OCCCCCCSC5OC(CO)C(O)C(O)C5O)CCC4(C)C3CCC12C (configuration not stated) here?
**A.** 1.01

**Q.** Which Log PI [1] does the source give for CC(=O)NC1C(SCCCCCCOC2CCC3(C)C(=CCC4C3CCC3(C)C(C(C)CCCC(C)C)CCC43)C2)OC(CO)C(O)C1O (stereo in doubt; form 1) [listing 1 of 2 here] here?
**A.** 0

**Q.** Which PI [7] does the source give for CC(C)CCCC(C)C1CCC2C3CC=C4CC(OCCCCCCSC5OC(CN)C(O)C(O)C5O)CCC4(C)C3CCC12C (configuration not stated) here?
**A.** 0.98

**Q.** Which Log PI [8] does the source give for CC(C)CCCC(C)[C@H]1CC[C@H]2C3CC=C4C[C@@H](OCCCCCCS[C@H]5O[C@@H](CO)[C@@H](O)[C@H](O)[C@H]5O)CC[C@]4(C)[C@H]3CC[C@]12C (some centres not stated) here?
**A.** 1.53

**Q.** For CC(=O)N[C@H]1C(O)O[C@@H](COC(=O)[C@H]2CC[C@@]3(C)C(=CC[C@H]4[C@@H]5CC[C@H]([C@H](C)CCCC(C)C)[C@@]5(C)CC[C@@H]43)C2)[C@@H](O)[C@@H]1O[C@@H](C)C(=O)N[C@@H](C)C(=O)N[C@@H](CCC(=O)O)C(N)=O (some centres not stated), which “No. of Colony forming Units” value [5] is on record?
**A.** 16000

**Q.** And the PI [7]?
**A.** 1000

**Q.** For CC(C)CCC[C@@H](C)[C@H]1CC[C@H]2[C@@H]3CC=C4C[C@@H](OCCCCCCS[C@@H]5O[C@@H](CO)[C@@H](O[C@@H]6O[C@@H](CO)[C@H](O)[C@H](O)[C@@H]6O)[C@H](O)[C@@H]5O)CC[C@]4(C)[C@H]3CC[C@]12C, which PI [7] is on record?
**A.** 3.5

**Q.** For COCC1OC(SCCCCCCOC2CCC3(C)C(=CCC4C3CCC3(C)C(C(C)CCCC(C)C)CCC43)C2)C(O)C(O)C1O (configuration not stated), which PI [7] is on record?
**A.** 0.53

**Q.** Which results are given for CC(=O)NC1C(SCCCCCCOC2CCC3(C)C(=CCC4C3CCC3(C)C(C(C)CCCC(C)C)CCC43)C2)OC(CO)C(O)C1O (stereo in doubt; form 1) [listing 2 of 2 here]?
**A.** No. of Colony forming Units ([5]; 40 mg/kg): 5.67 and 7.5; PI [7]: 0.53 and 0.7

**Q.** With CC(C)CCCC(C)C1CCC2C3CC=C4CC(OCCCCSC5OC(CO)C(O)C(O)C5O)CCC4(C)C3CCC12C (configuration not stated) as the molecule, how does the PI [7] read?
**A.** 0.84

**Q.** For CC(C)CCCC(C)C1CCC2C3CC=C4CC(OCCCCCCCCSC5OC(CO)C(O)C(O)C5O)CCC4(C)C3CCC12C (configuration not stated), which PI [7] is on record?
**A.** 0.58

**Q.** For CC(C)CCCC(C)[C@H]1CC[C@H]2C3CC=C4C[C@@H](OCCCCCCS[C@@H]5O[C@@H](CO)[C@@H](O)[C@H](O)[C@H]5O)CC[C@]4(C)[C@H]3CC[C@]12C (some centres not stated), which PI [11] is on record?
**A.** 2.29

**Q.** And the PI [12]?
**A.** 9.52

**Q.** What about the PI [13] of the same molecule?
**A.** 2.29

**Q.** And the Log PI [8]?
**A.** 4.02

**Q.** What about the PI [14] of the same molecule?
**A.** 4.81

**Q.** What about the PI [15] of the same molecule?
**A.** 2.59

**Q.** For CC(C)CCCC(C)C1CCC2C3CC=C4CC(OCCCCCCSC5OCC(O)C(O)C5O)CCC4(C)C3CCC12C (configuration not stated), which PI [7] is on record?
**A.** 1.01

**Q.** Which Log PI [8] does the source give for CC(=O)NC1C(SCCCCCCOC2CCC3(C)C(=CCC4C3CCC3(C)C(C(C)CCCC(C)C)CCC43)C2)OC(CO)C(O)C1O (stereo in doubt; form 2) [listing 2 of 2 here] here?
**A.** 0
